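Step 1: Grow cells in 96-well plates. Step 2: Expose to compound for 48 hours at 5 concentrations. Step 3: Interpolate endpoints linearly; if unreached, use highest concentration. TGI denotes the concentration required for complete inhibition of growth.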
How the values were obtained:
Assay in all cases: DTP human tumour cell line panel, 48 h
[1] = test system: BT-549 breast
[2] = test system: HCC-2998 colon
[3] = test system: IGROV1 ovarian
[4] = test system: M14 melanoma
[5] = test system: MDA-N
[6] = test system: MOLT-4 leukemia
[7] = test system: RXF 393 renal
[8] = test system: SF-268 CNS
[9] = test system: SF-539 CNS
[10] = test system: U251 CNS
[11] = test system: SNB-75 CNS

SMILES	TGI [1] [µM]	TGI [2] [µM]	TGI [3] [µM]	TGI [4] [µM]	TGI [5] [µM]	TGI [6] [µM]	TGI [7] [µM]	TGI [8] [µM]	TGI [9] [µM]	TGI [10] [µM]	TGI [11] [µM]
CCN(CC)CC1CCCCN1CC(=O)N1c2ccccc2NC(=O)CC1C (stereo unspecified)	> 100	> 100	> 100	> 100	> 100	> 100	> 100	> 100	> 100	> 100	–
Cc1nc(C)c(C(=O)NNC(N)=S)cc1C(=O)NNC(N)=S	> 100	> 100	> 100	> 100	> 100	> 100	> 100	> 100	> 100	> 100	–
Cn1c(=O)c(C(=O)Nc2nc(C34CC5CC(CC(C5)C3)C4)cs2)c(O)c2ccccc21	> 100	> 100	> 100	–	> 100	–	65	> 100	> 100	> 100	> 100
CC(C)/C(Cl)=N\OC(=O)Nc1ccccc1F	27.6	19.6	33.4	13.3	30.6	12.4	9.97	41.9	32.1	31.1	23.1
COC(=O)c1c(O)ccc2c1c1c(n2Cc2ccccc2Cl)C(=O)c2ccccc2C1=O	29.2	29.9	28.3	34	31.1	56.1	41.3	29.4	30	30.2	–
COC(=O)C1C/C(=C/N(C)C)C(=S)N1 (stereo unspecified)	> 100	> 100	> 100	> 100	> 100	> 100	> 100	> 100	–	> 100	> 100
CCCSc1ccc2[nH]c(N3C(=O)/C(=C/c4ccco4)N=C3c3ccccc3)cc2c1	> 50	> 50	> 50	> 50	20.1	> 50	> 50	> 50	25	–	> 50
Nn1c(COc2cccc(OCc3n[nH]c(=S)n3N)c2)n[nH]c1=S	> 100	> 100	> 100	> 100	> 100	21.7	> 100	> 100	> 100	> 100	> 100
CC(=O)OCCOCn1c2c(c(=S)[nH]c1=O)CCC2	> 100	> 100	> 100	> 100	> 100	> 100	> 100	> 100	> 100	> 100	> 100
O=CN1CCN(C(=O)c2ccc(Cl)cc2Cl)C1=S	> 100	> 100	> 100	> 100	> 100	> 100	> 100	> 100	> 100	> 100	85.5
S=C(NC1=NCC(CN2CCN(c3ccccc3)CC2)O1)Nc1ccccc1 (stereo unspecified)	> 100	> 100	> 100	> 100	> 100	> 100	> 100	> 100	> 100	> 100	> 100
COC(=O)CCC(=O)NC1=C(NCc2ccccc2)C(=O)c2ccccc2C1=O	> 100	> 100	53.7	> 100	29.6	> 100	> 100	> 100	43.8	94.8	> 100
CN(CCn1cnc2c1c(=O)n(C)c(=O)n2C)C1CCCCC1	> 100	> 100	> 100	> 100	> 100	> 100	> 100	> 100	> 100	> 100	> 100
COC(=O)C(Cc1c(C2Nc3ccccc3C2CC(NC(=O)CNC(C)=O)C(=O)OC)[nH]c2ccccc12)NC(=O)CNC(C)=O (stereo unspecified)	> 100	> 100	> 100	> 100	> 100	> 100	> 100	> 100	> 100	> 100	> 100
Oc1ccc(-c2nc(-c3cccnc3)c(-c3ccc(Cl)cc3)[nH]2)cc1O	21.6	26.6	18.6	26.4	25.1	> 100	25.6	39.7	–	26.4	20.2
Nc1nc(Cl)c(N)c(NCC2(CO)CC(OCc3ccccc3)C2)n1 (stereo unspecified)	> 100	> 100	> 100	> 100	> 100	> 100	> 100	> 100	> 100	> 100	> 100
C[C@]12CC[C@H]3[C@@H](CC=C4C[C@@H](N5CCCC5)CC[C@@]43C)[C@@H]1C[C@H](N1CCOCC1)[C@@H]2O	> 100	> 100	> 100	> 10	> 100	> 100	> 100	> 100	> 100	> 100	> 100
CCCCC(C#N)(OP1(=O)OC(c2ccccc2)C(C)N1C)c1ccccc1 (stereo unspecified)	43.6	28.9	32.3	38.3	31.3	35.9	33.1	35.9	31.2	31.4	37.3
COC(=O)NCCc1[nH]nc2c1C(=O)C=C(N1CCOCC1)C2=O	> 100	> 100	> 100	> 100	> 100	> 100	> 100	> 100	> 100	> 100	> 100

Reference: PubChem BioAssay (NCI)
